The term IC50 denotes the midpoint of a concentration-inhibition curve. Low readings indicate higher potency, high ones lower potency.

Sequence of KRAS G12C (P01116 other isoform, or with tags, fused parts or gaps G12C/C118A): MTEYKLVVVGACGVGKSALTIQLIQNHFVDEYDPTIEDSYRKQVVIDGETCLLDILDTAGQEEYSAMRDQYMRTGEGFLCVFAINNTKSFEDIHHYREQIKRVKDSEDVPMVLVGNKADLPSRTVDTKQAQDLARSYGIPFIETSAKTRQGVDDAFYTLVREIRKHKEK

The target in one assay is KRAS G12C (Homo sapiens (Human), UniProt P01116, C118A/G12C). Nature of the assay: 2 h coupled exchange assay. It is filed as biochemical. As to conditions: Avg 2 h Coupled exchange IC50, 2 h compound pre-incubation. The procedure:
The term “2 h coupled exchange assay” or “20 h coupled exchange assay” as used herein refers to the assay described in the Section entitled “BIOLOGICAL EVALUATION.”
The compound `C=CC(=O)N1CC2(CCN(c3nc4c(c(-c5c(C)ccc6cnn(C)c56)c3F)C[C@H]3C[C@@H]4C3(C)C)C2)C1` (single isomer, unassigned) [Example 14-64] gave an IC50 of 11.8 µM.
Same read-out and setting: for `C=CC(=O)N1CC2(CCN(c3nc4c(c(-c5cc(O)ccc5C)c3F)C[C@H]3C[C@@H]4C3(C)C)C2)C1` (single isomer, unassigned) [Example 14-60] the value was 3.35 µM.
On the same count and under the same terms, for `C=CC(=O)N1CC2(CCN(c3nc4c(c(-c5ccc(F)c6sc(N)c(C#N)c56)c3C)COC(C)(C)C4)C2)C1` [Example 14-106, 2-amino-7-fluoro-4-(3,7,7-trimethyl-2-(2-(2-propenoyl)-2,6-diazaspiro[3.4]octan-6-yl)-7,8-dihydro-5H-pyrano[4,3-b]pyridin-4-yl)-1-benzothiophene-3-carbonitrile] the value was 0.046 µM; for `C=CC(=O)N1CC2(CCN(c3nc4c(c(-c5cc(O)cc6ccccc56)c3F)COC(C)(C)C4)C2)C1` (single isomer, unassigned) [Example 14-69, (M)-1-(6-(3-fluoro-4-(3-hydroxy-1-naphthalenyl)-7,7-dimethyl-7,8-dihydro-5H-pyrano[4,3-b]pyridin-2-yl)-2,6-diazaspiro[3.4]octan-2-yl)-2-propen-1-one], 17 µM.
The same measure, in the same setting: as for `C=CC(=O)N1CC2(CCN(c3nc4cc(-n5ccnc5C)ccc4c(-c4ccccc4Cl)c3C)[C@H]2C)C1` (single isomer, unassigned) [Example 15-5], the figure is 0.779 µM; as for `C=CC(=O)N1CC2(CCN(c3nc4c(c(-c5c(C)ccc6cnn(C)c56)c3C(F)F)COC(C)(C)C4)C2)C1` [Example 29-1, 1-(6-(3-(difluoromethyl)-4-(1,6-dimethyl-1H-indazol-7-yl)-7,7-dimethyl-7,8-dihydro-5H-pyrano[4,3-b]pyridin-2-yl)-2,6-diazaspiro[3.4]octan-2-yl)-2-propen-1-one], 0.648 µM; as for `C=CC(=O)N1CC2(CCN(c3nc4c(c(-c5cc(O)cc6ccccc56)c3C)COC(C)(C)C4)C2)C1` (single isomer, unassigned) [Example 14-35, (P)-1-(6-(4-(3-hydroxy-1-naphthalenyl)-3,7,7-trimethyl-7,8-dihydro-5H-pyrano[4,3-b]pyridin-2-yl)-2,6-diazaspiro[3.4]octan-2-yl)-2-propen-1-one], 5.62 µM.
For `[2H]C([2H])([2H])n1ncc2ccc(C)c(-c3c(C)c(N4CCC5(CN(C(=O)C=C)C5)C4)nc4c3COC(C)(C)C4)c21` [Example 14-36, 1-(6-(3,7,7-trimethyl-4-(6-methyl-1-(^2H3)methyl-1H-indazol-7-yl)-7,8-dihydro-5H-pyrano[4,3-b]pyridin-2-yl)-2,6-diazaspiro[3.4]octan-2-yl)-2-propen-1-one], inhibition was half-maximal at 0.226 µM (IC50).
On the same count and under the same terms, for `C=CC(=O)N1CC2(CCN(c3nc4c(c(-c5c(C)c(C)cc6cnn(C)c56)c3C)COC(C)(C)C4)C2)C1` (single isomer, unassigned) [Example 14-42, (M)-1-(6-(3,7,7-trimethyl-4-(1,5,6-trimethyl-1H-indazol-7-yl)-7,8-dihydro-5H-pyrano[4,3-b]pyridin-2-yl)-2,6-diazaspiro[3.4]octan-2-yl)-2-propen-1-one] the value was 7.81 µM.

Staying with this assay, now noted: Avg 2 h Coupled exchange IC50, 2 h compound pre-incubation, SOS-mediated nucleotide exchange.
In turn, `C=CC(=O)N1CC2(CCN(c3nc4c(c(-c5ncc(Cl)c6ccccc56)c3C#N)COC(C)(C)C4)C2)C1` [Example 12-30, 4-(4-chloro-1-isoquinolinyl)-7,7-dimethyl-2-(2-(2-propenoyl)-2,6-diazaspiro[3.4]octan-6-yl)-7,8-dihydro-5H-pyrano[4,3-b]pyridine-3-carbonitrile] yielded an IC50 of 0.438 µM.
The compound `C=CC(=O)N1CC2(CCN(c3nc4c(c(-c5c(F)cccc5[C@H](C)O)c3C#N)C[C@H]3C[C@@H]4C3(C)C)C2)C1` (single isomer, unassigned) [Example 12-36] had an IC50 of 0.441 µM.
The compound `C=CC(=O)N1CC2(CCN(c3nc4c(c(-c5c(Cl)ccc6[nH]ccc56)c3C#N)COC(C)(C)C4)C2)C1` [Example 12-16, 4-(5-chloro-1H-indol-4-yl)-7,7-dimethyl-2-(2-(2-propenoyl)-2,6-diazaspiro[3.4]octan-6-yl)-7,8-dihydro-5H-pyrano[4,3-b]pyridine-3-carbonitrile] came in with a concentration for half-maximal inhibition (IC50) of 0.242 µM.
The compound `C=CC(=O)N1CC2(CCN(c3nc4c(c(-c5c(C)ccc6cnn(C)c56)c3C#N)CO[C@H](C3CC3)C4)C2)C1` (single isomer, unassigned) [Example 13-120] returned an IC50 of 9.19 µM.
Still for that read-out and setting: as for `C=CC(=O)N1CC2(CCN(c3cc4c(c(-c5cc(O)cc6ccccc56)c3C#N)OCCC4)C2)C1` (single isomer, unassigned) [Example 2-53, (P)-8-(3-hydroxy-1-naphthalenyl)-6-(2-(2-propenoyl)-2,6-diazaspiro[3.4]octan-6-yl)-3,4-dihydro-2H-chromene-7-carbonitrile], the figure is 7.11 µM.
Turning to `C=CC(=O)N1CC2(CCN(c3nc4c(c(-c5cccc6cc(N)ccc56)c3C#N)COC(C)(C)C4)C2)C1` [Example 12-4, 4-(6-amino-1-naphthalenyl)-7,7-dimethyl-2-(2-(2-propenoyl)-2,6-diazaspiro[3.4]octan-6-yl)-7,8-dihydro-5H-pyrano[4,3-b]pyridine-3-carbonitrile], the IC50 turned out to be 0.818 µM.
Compound `C=CC(=O)N1CC2(CCN(c3nc4c(c(-c5c(C)ccc6cnn(C)c56)c3C#N)CNC(C)(C)C4)C2)C1` [Example 13-138, 4-(1,6-dimethyl-1H-indazol-7-yl)-7,7-dimethyl-2-(2-(2-propenoyl)-2,6-diazaspiro[3.4]octan-6-yl)-5,6,7,8-tetrahydro-1,6-naphthyridine-3-carbonitrile] displayed an IC50 of 0.641 µM.
On the same count and under the same terms, for `C=CC(=O)N1CC2(CCN(c3nc4c(c(-c5cccc6cc(N)ncc56)c3C#N)COC(C)(C)C4)C2)C1` [Example 12-17, 4-(3-amino-8-isoquinolinyl)-7,7-dimethyl-2-(2-(2-propenoyl)-2,6-diazaspiro[3.4]octan-6-yl)-7,8-dihydro-5H-pyrano[4,3-b]pyridine-3-carbonitrile] the value was 0.132 µM; for `C=CC(=O)N1CC2(CCN(c3nc4c(c(-c5c(C)ccc6cnn(C)c56)c3Cl)COC(C)(C)C4)C2)C1` [Example 2-86, 1-(6-(3-chloro-4-(1,6-dimethyl-1H-indazol-7-yl)-7,7-dimethyl-7,8-dihydro-5H-pyrano[4,3-b]pyridin-2-yl)-2,6-diazaspiro[3.4]octan-2-yl)-2-propen-1-one], 6.15 µM; for `C=CC(=O)N1CC2(CCN(c3nc4c(c(-c5cc(O)cc(Cl)c5C)c3C)COC(C)(C)C4)C2)C1` (single isomer, unassigned) [Example 12-44, (P)-1-(6-(4-(3-chloro-5-hydroxy-2-methylphenyl)-3,7,7-trimethyl-7,8-dihydro-5H-pyrano[4,3-b]pyridin-2-yl)-2,6-diazaspiro[3.4]octan-2-yl)prop-2-en-1-one], 11 µM.
`C=CC(=O)N1CC2(CCN(c3nc4c(c(-c5c(C)ccc6cnn(C)c56)c3C#N)C[C@H]3C[C@@H]4C3)[C@H]2C)C1` (single isomer, unassigned) [Example 13-32]: the IC50 was determined as 64.9 µM.
`C=CC(=O)N1CC2(CCN(c3nc4c(c(-c5c(C)ccc6[nH]ncc56)c3C#N)[C@H]3CC[C@@H]4C3)C2)C1` (single isomer, unassigned) [Example 14-8] yielded an IC50 of 2.57 µM.
Same read-out and setting: for `C=CC(=O)N1CC2(CCN(c3nc4c(c(-c5c(C)cccc5O)c3C#N)C[C@H]3C[C@@H]4C3)C2)C1` (single isomer, unassigned) [Example 13-40] the value was 34.1 µM.
On the same count and under the same terms, as for `C=CC(=O)N1CC2(CCN(c3nc4c(c(-c5c(O)cccc5Cl)c3C#N)C[C@H]3C[C@@H]4C3)C2)C1` (single isomer, unassigned) [Example 13-67], the figure is 0.506 µM; as for `C=CC(=O)N1CC2(C1)CN(c1cc3ccccc3c(-c3c(C)ccc4[nH]ncc34)c1C#N)C2` [Example 1-34, 1-(5-methyl-1H-indazol-4-yl)-3-(6-(2-propenoyl)-2,6-diazaspiro[3.3]heptan-2-yl)-2-naphthalenecarbonitrile], 0.823 µM.
On to `C=CC(=O)N1CC2(CCN(c3nc4c(c(-c5c(C)ccc6cn[nH]c56)c3C)CCC(C)(C)C4)C2)C1` (single isomer, unassigned) [Example 2-25, (M)-1-(6-(3,7,7-trimethyl-4-(6-methyl-1H-indazol-7-yl)-5,6,7,8-tetrahydro-2-quinolinyl)-2,6-diazaspiro[3.4]octan-2-yl)-2-propen-1-one], for which half-maximal inhibition (IC50) was put at 6.88 µM.
Still for that read-out and setting: for `C=CC(=O)N1CC2(CCN(c3nc4c(c(-c5ccc(O)c6ccccc56)c3C#N)COC(C)(C)C4)C2)C1` [Example 12-31, 4-(4-hydroxy-1-naphthalenyl)-7,7-dimethyl-2-(2-(2-propenoyl)-2,6-diazaspiro[3.4]octan-6-yl)-7,8-dihydro-5H-pyrano[4,3-b]pyridine-3-carbonitrile] the value was 0.189 µM.
Regarding `C=CC(=O)N1CC2(CCN(c3nc4c(c(-c5c(C)c(C)cc6cnn(C)c56)c3C)CCN(C(C)C)C4)C2)C1` [Example 12-25, 1-(6-(3-methyl-7-(2-propanyl)-4-(1,5,6-trimethyl-1H-indazol-7-yl)-5,6,7,8-tetrahydro-1,7-naphthyridin-2-yl)-2,6-diazaspiro[3.4]octan-2-yl)-2-propen-1-one], half-maximal inhibition (IC50) required 0.141 µM.
Same read-out and setting: as for `C=CC(=O)N1CC2(CCN(c3cn4ccnc4c(-c4cc(O)ccc4C)c3C#N)C2)C1` [Example 1-29, 8-(5-hydroxy-2-methylphenyl)-6-(2-(2-propenoyl)-2,6-diazaspiro[3.4]octan-6-yl)imidazo[1,2-a]pyridine-7-carbonitrile], the figure is 3.53 µM; as for `C=CC(=O)N1CC2(CCN(c3nc4c(c(-c5ccccc5F)c3C#N)CCCC4)C2)C1` [Example 2-7, 4-(2-fluorophenyl)-2-(2-(2-propenoyl)-2,6-diazaspiro[3.4]octan-6-yl)-5,6,7,8-tetrahydro-3-quinolinecarbonitrile], 2.02 µM.

For the origin of these results see patent US20240059703A1 (AMGEN INC., priority 2021, published 2024).
